Test results taken from patent publication US8415476B2, “Indazole having analgesic activity” (Aziende Chimiche Riunite Angelini Francesco A.C.R.A.F. …, priority 2003, dated 2013).

Legend:
[1] = tested on: mechanical hyperalgesia induced by CFA in the rat; test: Mechanical hyperalgesia induced by CFA in the rat; assay type: in vivo; conditions: male CD rats, dose 10^-5 mol/kg, test 23 hours after injection of CFA, vehicle 121 ± 4.1, normal animals 155±2.1 g
Text: 1. Mechanical Hyperalgesia Induced by CFA in the Rat
Male CD rats weighing 150-200 g on arrival were used. Using an analgesiometer, rats were selected having a response threshold to a mechanical nociceptive stimulus of from 150 to 180 g. By applying a gradual increase in pressure on the dorsal zone of the rat's left hind foot, the instrument makes it possible to record the nocifensive response, expressed in grams, corresponding to the moment when the animal retracts its foot [Randall L O and Semite J J. A method for the measurement of analgesic activity on inflamed tissue. Arch. Int. Pharmacodyn. Ther. 1957; 111: 409-419].
Hyperalgesia was induced by unilateral injection of 150 μl of Complete Freund's Adjuvant (CFA) in the plantar surface of the animal's left hind foot [Andrew D, Greenspan J D. Mechanical and heat sensitization of cutaneous nociceptors after peripheral inflammation in the rat. J Neurophysiol 1999; 82(5): 2649-2656; Hargreaves K, Dubner R, Brown R, Flores C, Joris J. A new and sensitive method for measuring thermal nociception in cutaneous hyperalgesia. Pain 1988; 32: 77-88].
The compounds under examination were tested (dose 10^−5 mol/kg) by carrying out the test 23 hours after injection of CFA.
At 1 h following the treatment, the pain threshold measured in control animals was compared with that measured in animals treated with the product under examination. The control animals were treated with the same vehicle (water) used for administering the products under examination.

[2] = tested on: mechanical hyperalgesia in rats with diabetes induced by streptozotocin; test: Mechanical hyperalgesia in rats with diabetes induced by streptozotocin; assay type: in vivo, rat; conditions: male CD rats, streptozotocin 80 mg/kg i.p. diabetic neuropathy, dose 10^-5 mol/kg, vehicle 112 ± 4.0, normal animals 240±8.7 g
Protocol: The pain threshold of normal animals of equal weight/age=155±2.1 g 2. Mechanical Hyperalgesia in Rats with Diabetes Induced by Streptozotocin
Male CD rats weighing 240-300 g on arrival were used.
Diabetic syndrome was induced by a single intraperitoneal (i.p.) injection of 80 mg/kg of streptozotocin dissolved in sterile physiological solution [Courteix C, Eschalier A, Lavarenne J. Streptozotocin-induced diabetic rats: behavioural evidence for a model of chronic pain. Pain, 1993; 53: 81-88; Bannon A W, Decker M W, Kim Dj, Campbell J E, Arneric S P. ABT-594, a novel cholinergic channel modulator, is efficacious in nerve ligation and diabetic neuropathy models of neuropathic pain. Brain Res. 1998; 801: 158-63].
After at least three weeks following the injection of streptozotocin, rats were selected having a level of glycaemia ≧300 mg/dl and having a response threshold to a mechanical nociceptive stimulus ≦120 g. The glycaemia levels were measured by means of a reflectometer using reactive strips impregnated with glucose oxidase. The pain threshold was measured using an analgesiometer. By applying a gradual increase in pressure on the dorsal zone of the rat's left hind foot, the instrument makes it possible to record the nocifensive response, expressed in grams, corresponding to the moment when the animal retracts its foot.
At 2 h following the treatment, the pain threshold measured in control animals was compared with that measured in animals treated with the product under examination (dose 10^−5 mol/kg).
The control animals were treated with the same vehicle (water) used for administering the products under examination.

Structure (SMILES)	Pain threshold (g) 1 h after treatment [1]	Pain threshold (g) 2 h after treatment [2]	melting point
CC(C)n1nc(C(=O)NCC2CCN(CCc3ccc(N)cc3)CC2)c2ccccc21.Cl.Cl [AF3R294, N((1-(2-(4-aminophenyl)ethyl)-4-piperidinyl)methyl)-1-(1-methylethyl)-1H-indazole-3-carboxamide dihydrochloride]	194 ± 22.4 g	198 ± 18.6 g	
Cc1ccc2c(c1)c(C(=O)NCC1CCN(CCc3ccc(O)cc3)CC1)nn2C(C)C.Cl [AF3R296, N((1-(2-(4-hydroxyphenyl)ethyl)-4-piperidinyl)methyl)-5-methyl-1-(1-methylethyl)-1H-indazole-3-carboxamide hydrochloride]	151 ± 10.7 g	154 ± 8.7 g	
Cl.O=C(NCC1CCN(CCc2ccc([N+](=O)[O-])cc2)CC1)c1n[nH]c2ccccc12 [AF3R298, N((1-(2-(4-nitrophenyl)ethyl)-4-piperidinyl)methyl)-1H-indazole-3-carboxamide hydrochloride]	174 ± 9.8 g	170 ± 10.2 g	
Cl.Cl.Nc1ccc(CCN2CCC(CNC(=O)c3n[nH]c4ccccc34)CC2)cc1 [AF3R302, N((1-(2-(4-aminophenyl)ethyl)-4-piperidinyl)methyl)-1H-indazole-3-carboxamide dihydrochloride]	160 ± 10.2 g	164 ± 10.2 g	
CC(C)n1nc(C(=O)NCC2CCN(CCc3ccc([N+](=O)[O-])cc3)CC2)c2ccccc21.O=C(O)C(=O)O [AF3R306, N((1-(2-(4-nitrophenyl)ethyl)-4-piperidinyl)methyl)-1-(1-methylethyl)-1H-indazole-3-carboxamide oxalate]	186 ± 11.0 g	184 ± 13.8 g	
COc1ccc(CCN2CCC(C(=O)Nc3nn(C)c4ccccc34)CC2)cc1.Cl [AF3R328, N-(1-methyl-1H-indazol-3-yl)-1-(2-(4-methoxyphenyl)ethyl)piperidine-4-carboxamide hydrochloride]	150 ± 8.7 g	158 ± 6.2 g	137 to 139 °C (dec.)
Cl.Cn1nc(NC(=O)C2CCN(CCc3ccc(O)cc3)CC2)c2ccccc21 [AF3R330]	161 ± 10.5 g	171 ± 9.6 g	
Cl.Cn1nc(NC(=O)C2CCN(CCc3ccccc3)CC2)c2ccccc21 [AF3R334, N-(1-methyl-1H-indazol-3-yl)-1-(2-phenylethyl)piperidine-4-carboxamide hydrochloride]	170 ± 11.0 g	184 ± 10.5 g	235 to 237 °C
